Experimental data from the SangsterLogP compilation.
Each block holds one compound with its values, some of them ahead of it.

Assay: method code SF-AS, from DOI: 10.1002/recl.19891080306

logP: 1.8
Compound: c1ccc2c(c1)OCCOCCOCCOCCOc1ccccc1OCCOCCOCCOCCO2

logP: 1.82
Compound: c1ccc2c(c1)OCCOCCOCCOCCOCCOCCOCCOc1ccccc1OCCO2

logP: 2.11
Compound: c1ccc2c(c1)OCCOCCOCCOc1ccccc1OCCOCCOCCO2

logP: 0.23
Compound: c1ccc2c(c1)OCCOCCOCCOCCOCCOCCOCCOCCO2

logP: 1.45
Compound: c1ccc2c(c1)OCCOCCOCCOCCOCCOCCOc1ccccc1OCCOCCOCCO2

logP: 1.63
Compound: c1ccc2c(c1)OCCOCCOCCOCCOCCOCCOc1ccccc1OCCO2

The next lines start with the compound.

Compound: c1ccc2c(c1)OCCOCCOCCOCCO2
logP: 0.91

Compound: c1ccc2c(c1)OCCOCCOc1ccccc1OCCOCCO2
logP: 2.2

Compound: c1ccc2c(c1)OCCOCCOCCOCCOCCOCCOCCOCCOCCOCCO2
logP: -0.09

Compound: COCCOCCOc1ccc(OCCOCCOC)cc1
logP: 0.76

Compound: COCCOCCOCCOc1ccccc1OCCOCCOCCOC
logP: 0.38

Compound: COCCOCCOc1ccccc1OCCOCCOC
logP: 0.76

Compound: c1ccc2c(c1)OCCOCCOCCOCCOCCOCCOCCO2
logP: 0.45

Compound: COCCOCCOc1cccc(OCCOCCOC)c1
logP: 0.86

Compound: c1ccc2c(c1)OCCOCCOCCOCCOCCOCCOCCOCCOCCO2
logP: 0.03

Compound: c1ccc2c(c1)OCCOCCOCCOCCOCCOCCO2
logP: 0.57

Compound: c1ccc2c(c1)OCCOCCOCCOCCOCCOCCOCCOc1ccccc1OCCOCCOCCOCCOCCOCCOCCO2
logP: 0.52

Compound: c1ccc2c(c1)OCCOCCOCCOCCOCCO2
logP: 0.58
